This experiment addresses T1, P2X7 receptor (Homo sapiens, UniProt Q99572).
T1 construct: host or cells: SH-SY5Y
T1 sequence (Q99572 1-595): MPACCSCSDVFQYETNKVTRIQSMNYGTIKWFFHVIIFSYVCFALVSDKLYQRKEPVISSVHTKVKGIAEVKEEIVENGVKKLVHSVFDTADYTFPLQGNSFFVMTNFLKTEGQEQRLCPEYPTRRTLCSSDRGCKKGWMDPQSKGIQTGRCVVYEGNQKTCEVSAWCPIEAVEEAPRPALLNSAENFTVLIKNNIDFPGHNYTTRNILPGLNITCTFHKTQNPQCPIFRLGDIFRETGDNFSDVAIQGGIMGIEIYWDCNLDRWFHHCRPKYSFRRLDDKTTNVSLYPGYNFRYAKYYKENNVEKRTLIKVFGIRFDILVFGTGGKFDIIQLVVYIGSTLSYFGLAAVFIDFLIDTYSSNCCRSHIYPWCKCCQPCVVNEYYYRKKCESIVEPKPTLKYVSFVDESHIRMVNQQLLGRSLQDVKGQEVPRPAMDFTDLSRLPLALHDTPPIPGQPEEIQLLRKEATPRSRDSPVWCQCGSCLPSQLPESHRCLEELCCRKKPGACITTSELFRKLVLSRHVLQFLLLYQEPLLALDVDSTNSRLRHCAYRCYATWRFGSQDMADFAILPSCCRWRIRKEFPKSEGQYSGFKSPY
Briefly: P2X7 calcium mobilization assay, high throughput, antagonist activity (Example 4A). The experiment is classed as cell-based. Here is the method: One day prior to the experiment, cells are plated at a density of 100,000 cells/well in a 96 well black/clear TC plate (Corning® Costar®, Sigma-Aldrich Co., St. Louis, Mo.). […] After one hour dye incubation, wells are rinsed once with 50 μL assay solution, and are then incubated for an hour at room temperature with 100 μL assay solution containing the test compound. […] After the one hour incubation, plates are transferred to a FLIPR^TETRA instrument (Molecular Devices, Sunnyvale, Calif.) for calcium mobilization analysis.
First, the average maximum relative fluorescent unit (RFU) response from the negative control wells (no agonist) is subtracted from the maximum response detected for each of the other experimental wells. Second, average maximum RFU response is calculated for the positive control wells (agonist wells).

Setting [1] is: SH-SY5Y cells, 50% decrease in fluorescence response to 80 μM BzATP, read-out: IC50.

Like-named read-outs stand apart in the source and are kept apart here.

As for `CC(C)[C@H](CO)NC(=O)Cc1cn2c(C(=O)NCC34CC5CC(CC(C5)C3)C4)cccc2n1` [Compound 32, N-(adamantan-1-ylmethyl)-2-(2-{[(1R)-1-(hydroxymethyl)-2-methylpropyl]amino}-2-oxoethyl)imidazo[1,2-a]pyridine-5-carboxamide], the IC50 under setting [1] was < 2000 nM. On to `CC(O)CNC(=O)Cc1cn2c(C(=O)NCC34CC5CC(CC(C5)C3)C4)cccc2n1` (stereo not shown) [Compound 33, N-(adamantan-1-ylmethyl)-2-{2-[(2-hydroxypropyl)amino]-2-oxoethyl}imidazo[1,2-a]pyridine-5-carboxamide], for which, under setting [1], the IC50 is < 2000 nM.

For the molecule `COCC1CCN(C(=O)Cc2cn3c(C(=O)NCC45CC6CC(CC(C6)C4)C5)cccc3n2)CC1` [Compound 34, N-(adamantan-1-ylmethyl)-2-{2-[4-(methoxy-methyl)piperidin-1-yl]-2-oxoethyl}imidazo[1,2-a]pyridine-5-carboxamide], under setting [1], the 50% inhibitory concentration (IC50) was < 2000 nM.

As for `COCCC1CCN(C(=O)Cc2cn3c(C(=O)NCC45CC6CC(CC(C6)C4)C5)cccc3n2)CC1` [Compound 35, N-(adamantan-1-ylmethyl)-2-{2-[4-(2-methoxyethyl)piperidin-1-yl]-2-oxoethyl}imidazo[1,2-a]pyridine-5-carboxamide], the IC50 under setting [1] was < 2000 nM. Take `CN(C(=O)Cc1cn2c(C(=O)NCC34CC5CC(CC(C5)C3)C4)cccc2n1)C1CCOC1` (stereo not shown) [Compound 37, N-(adamantan-1-ylmethyl)-2-{2-[methyl(tetrahydrofuran-3-yl)amino]-2-oxoethyl}imidazo[1,2-a]pyridine-5-carboxamide]: the IC50 under setting [1] is < 2000 nM. As to `CN1CCC(N(C)C(=O)Cc2cn3c(C(=O)NCC45CC6CC(CC(C6)C4)C5)cccc3n2)C1` (stereo not shown) [Compound 39, N-(adamantan-1-ylmethyl)-2-{2-[methyl(1-methylpyrrolidin-3-yl)amino]-2-oxoethyl}imidazo[1,2-a]pyridine-5-carboxamide], the half-inhibitory concentration (IC50) under setting [1] is < 2000 nM. On the same count and under the same terms, with `COC1CCN(C(=O)Cc2cn3c(C(=O)NCC45CC6CC(CC(C6)C4)C5)cccc3n2)CC1` [Compound 42, N-(adamantan-1-ylmethyl)-2-[2-(4-methoxypiperidin-1-yl)-2-oxoethyl]imidazo[1,2-a]pyridine-5-carboxamide] the figure was < 2000 nM; with `CS(=O)(=O)C1CCN(C(=O)Cc2cn3c(C(=O)NCC45CC6CC(CC(C6)C4)C5)cccc3n2)CC1` [Compound 43], < 2000 nM. As for `CS(=O)(=O)N1CCN(C(=O)Cc2cn3c(C(=O)NCC45CC6CC(CC(C6)C4)C5)cccc3n2)CC1` [Compound 44, N-(adamantan-1-ylmethyl)-2-{2-[4-(methylsulfonyl)piperazin-1-yl]-2-oxoethyl}imidazo[1,2-a]pyridine-5-carboxamide], the IC50 under setting [1] is < 2000 nM. `CN(CCNS(C)(=O)=O)C(=O)Cc1cn2c(C(=O)NCC34CC5CC(CC(C5)C3)C4)cccc2n1` [Compound 45, N-(adamantan-1-ylmethyl)-2-[2-(methyl{2-[(methyl-sulfonyl)amino]eth-yl}amino)-2-oxoethyl]imidazo[1,2-a]pyridine-5-carboxamide]: the IC50 under setting [1] is < 2000 nM. Turning to `O=C1CN(C(=O)Cc2cn3c(C(=O)NCC45CC6CC(CC(C6)C4)C5)cccc3n2)CCN1` [Compound 46, N-(adamantan-1-ylmethyl)-2-[2-oxo-2-(3-oxopiperazin-1-yl)ethyl]imidazo[1,2-a]pyridine-5-carboxamide], the IC50 under setting [1] is < 2000 nM. Still for that read-out and setting: with `COC1CCCN(C(=O)Cc2cn3c(C(=O)NCC45CC6CC(CC(C6)C4)C5)cccc3n2)C1` (stereo not shown) [Compound 47, N-(adamantan-1-ylmethyl)-2-[2-(3-methoxypiperidin-1-yl)-2-oxoethyl]imidazo[1,2-a]pyridine-5-carboxamide] the figure was < 2000 nM; with `NC(=O)C1CCCN(C(=O)Cc2cn3c(C(=O)NCC45CC6CC(CC(C6)C4)C5)cccc3n2)C1` (stereo not shown) [Compound 50, N-(adamantan-1-ylmethyl)-2-[2-(3-carbamoylpiperidin-1-yl)-2-oxoethyl]imidazo[1,2-a]pyridine-5-carboxamide], < 2000 nM. For `CN(CCO)C(=O)Cc1cn2c(C(=O)NCC34CC5CC(CC(C5)C3)C4)cccc2n1` [Compound 51, N-(adamantan-1-ylmethyl)-2-{2-[(2-hydroxy-ethyl)(methyl)amino]-2-oxoethyl}imidazo[1,2-a]pyridine-5-carboxamide], the IC50 under setting [1] is < 2000 nM.

In the case of `O=C(NCC12CC3CC(CC(C3)C1)C2)c1cccc2nc(CC(=O)N3CCCC(O)C3)cn12` (stereo not shown) [Compound 53, N-(adamantan-1-ylmethyl)-2-[2-(3-hydroxypiperidin-1-yl)-2-oxoethyl]imidazo[1,2-a]pyridine-5-carboxamide], the IC50 under setting [1] is < 2000 nM. Regarding `O=C(NCC12CC3CC(CC(C3)C1)C2)c1cccc2nc(CC(=O)N3CCC(O)CC3)cn12` [Compound 54, N-(adamantan-1-ylmethyl)-2-[2-(4-hydroxypiperidin-1-yl)-2-oxoethyl]imidazo[1,2-a]pyridine-5-carboxamide], under setting [1], the IC50 was < 2000 nM. On the same count and under the same terms, with `O=C(NCC12CC3CC(CC(C3)C1)C2)c1cccc2nc(CC(=O)N3CC(O)C3)cn12` [Compound 55, N-(adamantan-1-ylmethyl)-2-[2-(3-hydroxyazetidin-1-yl)-2-oxoethyl]imidazo[1,2-a]pyridine-5-carboxamide] the figure was < 2000 nM; with `CC1(O)CCN(C(=O)Cc2cn3c(C(=O)NCC45CC6CC(CC(C6)C4)C5)cccc3n2)CC1` [Compound 56, N-(adamantan-1-ylmethyl)-2-[2-(4-hydroxy-4-methylpiperidin-1-yl)-2-oxoethyl]imidazo[1,2-a]pyridine-5-carboxamide], < 2000 nM.

On to `CN(CC(C)(C)O)C(=O)Cc1cn2c(C(=O)NCC34CC5CC(CC(C5)C3)C4)cccc2n1` [Compound 57, N-(adamantan-1-ylmethyl)-2-{2-[(2-hydroxy-2-methyl-propyl)(meth-yl)amino]-2-oxoethyl}imidazo[1,2-a]pyridine-5-carboxamide], for which the IC50 under setting [1] is < 2000 nM.

With `CN(CCC(C)(C)O)C(=O)Cc1cn2c(C(=O)NCC34CC5CC(CC(C5)C3)C4)cccc2n1` [Compound 58, N-(adamantan-1-ylmethyl)-2-{2-[(3-hydroxy-3-methyl-butyl)(methyl)amino]-2-oxoethyl}imidazo[1,2-a]pyridine-5-carboxamide], the IC50 under setting [1] was < 2000 nM. With `CN(CCCC(C)(C)O)C(=O)Cc1cn2c(C(=O)NCC34CC5CC(CC(C5)C3)C4)cccc2n1` [Compound 59, N-(adamantan-1-ylmethyl)-2-{2-[(4-hydroxy-4-methylpentyl)(meth-yl)amino]-2-oxoethyl}imidazo[1,2-a]pyridine-5-carboxamide], the IC50 under setting [1] is < 2000 nM.

As for `CC1(O)CCN(C(=O)Cc2cn3c(C(=O)NCC45CC6CC(CC(C6)C4)C5)cccc3n2)C1` (stereo not shown) [Compound 60, N-(adamantan-1-ylmethyl)-2-[2-(3-hydroxy-3-methylpyrrolidin-1-yl)-2-oxoethyl]imidazo[1,2-a]pyridine-5-carboxamide], under setting [1], the IC50 was < 2000 nM. The same measure, in the same setting: in the case of `CCOC(=O)Cc1nc2cccc(C(=O)NCC34CC5CC(CC(C5)C3)C4)n2c1Cl` [Compound 61, {5-[(Adamantan-1-ylmethyl)-carbamoyl]-3-chloro-imidazo[1,2-a]pyridin-2-yl}-acetic acid ethyl ester] it was < 2000 nM. Consider `CC(C)(C)OC(=O)N[C@@H]1CCN(Cc2cn3c(C(=O)NCC45CC6CC(CC(C6)C4)C5)cccc3n2)C1` [Compound 62, tert-butyl [(3R)-1-({5-[(adamantan-1-ylmethyl)carbamoyl]imi-dazo[1,2-a]pyridin-2-yl}methyl)pyrrolidin-3-yl]carbamate], for which the IC50 is < 2000 nM. Turning to `CS(=O)(=O)OCCc1cn2c(C(=O)NCC34CC5CC(CC(C5)C3)C4)cccc2n1` [Compound 63, methanesulfonic acid 2-{5-[(adamantan-1-ylmethyl)-carbamoyl]-imidazo[1,2-a]pyridin-2-yl}-ethyl ester], the IC50 under setting [1] is < 2000 nM.

Regarding `O=C(NCC12CC3CC(CC(C3)C1)C2)c1cccc2nc(CC(=O)N3CCNCC3)cn12` [Compound 64, N-(adamantan-1-ylmethyl)-2-(2-oxo-2-piperazin-1-ylethyl)imidazo[1,2-a]pyridine-5-carboxamide], the IC50 under setting [1] was < 2000 nM. For `O=C(NCC12CC3CC(CC(C3)C1)C2)c1cccc2nc(CNCCO)cn12` [Compound 65, N-(adamantan-1-ylmethyl)-2-{[(2-hydroxy-ethyl)amino]methyl}imi-dazo[1,2-a]pyridine-5-carboxamide], the IC50 was < 2000 nM.

With `C[C@@H](CO)NCc1cn2c(C(=O)NCC34CC5CC(CC(C5)C3)C4)cccc2n1` [Compound 66, N-(adamantan-1-ylmethyl)-2-({[(1S)-2-hydroxy-1-methylethyl]amino}methyl)imi-dazo[1,2-a]pyridine-5-carboxamide], the IC50 was < 2000 nM.

(Values after patent US8431593B2, “Heteroaryl amide derivatives” (H. Lundbeck A/S, priority 2006, dated 2013).)
